The results in this text go back to paper PMC10992857, “Chemoenzymatic access to enantiopure N-containing furfuryl alcohol from chitin-derived N-acetyl-D-glucosamine” (Bioresources and Bioprocessing, 2021).

The subject of assay [1] is T1, ScCR; carbonyl reductase from Streptomyces coelicolor.
T1 construct: pET28a, His-tag purified from E. coli BL21(DE3); NADH-dependent
The assay is described as follows: kinetics of asymmetric ketone reduction. Type of assay: biochemical. To be noted: co-substrate NADH; full assay conditions in supplement Table S3.

Assay [2] relates to T2, YueD; carbonyl reductase from Bacillus sp. ECU0013.
T2 construct: pET28a, His-tag purified from E. coli BL21(DE3); NADPH-dependent
The assay is described as follows: kinetics of asymmetric ketone reduction. To be noted: co-substrate NADPH; full assay conditions in supplement Table S3. Type of assay: biochemical. The source says:
kinetics of asymmetric ketone reduction on YueD; carbonyl reductase from Bacillus sp.

SMILES strings stand for the structures.

For orientation: Km means the concentration of substrate that gives half-maximal velocity. As to `CC(=O)Nc1coc(C(C)=O)c1` [3A5AF, 3-Acetamido-5-acetylfuran], the Michaelis constant (Km) in assay [1] was determined as 6.3 mM; in assay [2], 0.5 mM.
